Results on six molecules are retold here after PMC9710212 (Chemical Science, 2022).

For data set [1], the target named is T1, PARP16 (Homo sapiens, UniProt Q8N5Y8).
T1 sequence (Q8N5Y8 1-322): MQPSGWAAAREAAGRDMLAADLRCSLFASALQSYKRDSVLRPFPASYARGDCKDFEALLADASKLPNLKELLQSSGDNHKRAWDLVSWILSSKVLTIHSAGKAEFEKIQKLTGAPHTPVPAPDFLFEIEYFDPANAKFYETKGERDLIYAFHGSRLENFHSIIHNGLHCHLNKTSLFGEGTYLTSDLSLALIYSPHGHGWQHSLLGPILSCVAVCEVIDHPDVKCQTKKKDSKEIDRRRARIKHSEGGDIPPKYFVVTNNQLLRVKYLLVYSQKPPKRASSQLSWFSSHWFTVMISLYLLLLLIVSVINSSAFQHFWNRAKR
Kind of data set: Nutrient starvation. Type of data set: cell-based. The settings on record: HAP1 WT, HBSS 16 h; for effect on PARP16 levels under amino acid and serum starvation: 10 μM MG132, 1 μM bafilomycin A1, 50 μM chloroquine.

The target in data set [2] is T1, PARP16. The experiment in a line: In vitro competition assay of DB008 labeling. The format is binding. The settings on record: 1 μM competitor, 40 min, then DB008 20 min.
The test system of data set [3] is PARP16. The settings on record: cited from earlier work.
The target of the next data set is T2, PARP16ΔTM (Homo sapiens, UniProt Q8N5Y8).
T2 sequence (Q8N5Y8 1-287 limits assumed): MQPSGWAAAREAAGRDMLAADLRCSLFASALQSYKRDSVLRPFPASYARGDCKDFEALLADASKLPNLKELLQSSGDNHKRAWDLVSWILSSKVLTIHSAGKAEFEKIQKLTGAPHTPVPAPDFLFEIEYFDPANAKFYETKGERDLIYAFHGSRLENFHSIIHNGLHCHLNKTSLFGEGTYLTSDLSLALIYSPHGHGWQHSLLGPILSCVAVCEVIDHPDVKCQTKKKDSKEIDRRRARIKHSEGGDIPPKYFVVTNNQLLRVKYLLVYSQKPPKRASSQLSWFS
Kind of data set: in vitro MARylation assay. Type of data set: biochemical.

Data set [4] deals with T3, PARP1 (Homo sapiens, UniProt P09874). Kind of data set: PASTA biochemical plate assay.
T3 sequence (P09874 whole entry): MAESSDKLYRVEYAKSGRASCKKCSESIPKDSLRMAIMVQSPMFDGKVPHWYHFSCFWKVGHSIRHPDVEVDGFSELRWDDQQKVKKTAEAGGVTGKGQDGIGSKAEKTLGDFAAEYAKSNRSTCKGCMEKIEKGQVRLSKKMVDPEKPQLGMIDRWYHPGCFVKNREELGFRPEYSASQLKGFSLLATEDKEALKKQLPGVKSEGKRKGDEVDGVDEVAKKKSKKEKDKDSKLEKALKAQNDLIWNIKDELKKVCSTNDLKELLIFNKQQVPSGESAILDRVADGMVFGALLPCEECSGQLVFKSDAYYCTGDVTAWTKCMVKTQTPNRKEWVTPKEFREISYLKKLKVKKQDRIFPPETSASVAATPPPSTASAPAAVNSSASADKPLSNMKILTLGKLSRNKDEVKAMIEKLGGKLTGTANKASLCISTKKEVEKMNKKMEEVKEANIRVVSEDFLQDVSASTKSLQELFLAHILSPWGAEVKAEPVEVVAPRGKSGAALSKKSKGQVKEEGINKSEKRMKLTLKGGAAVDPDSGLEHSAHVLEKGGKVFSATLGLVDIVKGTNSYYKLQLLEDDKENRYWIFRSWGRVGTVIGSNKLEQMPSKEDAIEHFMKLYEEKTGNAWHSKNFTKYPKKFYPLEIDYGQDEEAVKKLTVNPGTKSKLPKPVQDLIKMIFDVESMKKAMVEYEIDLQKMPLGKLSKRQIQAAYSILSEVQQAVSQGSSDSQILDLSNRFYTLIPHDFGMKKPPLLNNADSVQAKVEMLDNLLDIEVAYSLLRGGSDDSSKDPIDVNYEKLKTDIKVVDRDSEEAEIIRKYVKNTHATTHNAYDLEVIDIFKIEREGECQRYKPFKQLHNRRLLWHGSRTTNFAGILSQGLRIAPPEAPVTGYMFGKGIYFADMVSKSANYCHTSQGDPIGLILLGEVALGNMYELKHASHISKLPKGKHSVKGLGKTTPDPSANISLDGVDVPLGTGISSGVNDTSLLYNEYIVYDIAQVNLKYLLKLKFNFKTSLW
The target of a further data set is T4, SUMO-PARP16ΔTM (Homo sapiens, UniProt Q8N5Y8).
T4 sequence (Q8N5Y8 1-287 limits assumed): T2 sequence (Q8N5Y8 1-287 limits assumed)
Kind of data set: Whole-protein electrospray ionization. The format is binding. As to conditions: 50- or 100-fold excess of HJ-52.

In data set [5] the target is T3, PARP1. The experiment in a line: Cellular PARylation assay in HEK 293T cells. The format is cell-based.

pIC50: −log10 of the molar value. Peptide text beside a SMILES is read from it. * marks the point of attachment. Cbz = O=C(OCc1ccccc1)*

For `Cn1ncnc1[C@H]1c2n[nH]c(=O)c3cc(F)cc(c23)N[C@@H]1c1ccc(F)cc1` [talazoparib], on PARP16 [1], the “effect on PARP16 levels in RIPA-soluble fraction” value is “increased, dose dependently” and the “effect on starvation-induced increase of PARP16 in RIPA-insoluble fraction” value is “counteracted in a dose-dependent manner”. Further, the “competition of DB008 labeling” value at PARP16 [2] was about 70%. Besides, in the data set on PARP16 [3], the “inhibition of recombinant PARP16” value is on record as “sub-micromolar potency”.

Take `CO/C1=C\C(C)=C\[C@@H](C)[C@@H](O)[C@@H](C)C/C(C)=C/C=C/[C@H](OC)[C@@H]([C@@H](C)[C@@H](O)[C@H](C)[C@@]2(O)C[C@@H](O)[C@H](C)[C@@H](C(C)C)O2)OC1=O` [bafilomycin A1]: the “effect on PARP16 levels under amino acid and serum starvation” value at PARP16 [1] was “did not impact PARP16 levels”.

With `O=C(c1cc(Cc2n[nH]c(=O)c3ccccc23)ccc1F)N1CCN(C(=O)C2CC2)CC1` [olaparib], the pIC50 with PARP16 [3] (read-out: PARP16 IC50) is […].

On to `CCN(CC)CCCC(C)Nc1ccnc2cc(Cl)ccc12` (centres unmarked) [chloroquine], for which the “effect on PARP16 levels under amino acid and serum starvation” value on PARP16 [1] is “did not impact PARP16 levels”.

Regarding `CC(C)C[C@@H](C=O)NC(=O)[C@H](CC(C)C)NC(=O)[C@H](CC(C)C)NC(=O)OCc1ccccc1` [MG132] (Cbz-Leu-Leu-Leu-aldehyde), the “effect on PARP16 levels under amino acid and serum starvation” value at PARP16 [1] is reported as “did not impact PARP16 levels”.

Take `C=CC(=O)N1CCN(C(=O)c2cc(Cc3n[nH]c(=O)c4ccccc34)ccc2F)CC1` [HJ-52, 4-(3-(4-acryloylpiperazine-1-carbonyl)-4-fluorobenzyl)phthalazin-1(2H)-one]: on PARP16ΔTM, the pIC50 is 5.93 and the “fold more potent against PARP16 than olaparib” value was “about 2.5 fold”. Besides, at PARP1 [4], the pIC50 is 7.72 and the “potency against PARP1 relative to olaparib” value is recorded as “equipotent”. For the same molecule, the “covalent complex formation with SUMO-PARP16ΔTM” value on SUMO-PARP16ΔTM was 1 : 1 covalent complex. The “potency against PARP1 in cellular PARylation assay” value at PARP1 [5] is on record as “low nanomolar potency”.
